# Test results: patent US20070269570A1, “FLAVONOID SUGAR ADDITION PRODUCTS, METHOD FOR MANUFACTURE AND USE THEREOF” (priority 2006, published 2007)
# Legend:
# Assay type in all cases: in vivo, human
# [1] = Triangle test of taste modification of theobromine solution; conditions: for taste: compared with theobromine reference; for % of panellists who detected a difference: eight panelists; for taste intensity: theobromine reference bitterness 5.0
# Description: To investigate the influence of taste modification of (−)-catechin-8-C-β-D-glucopyranoside on theobromine in comparison to the aglycons (+)-catechin and (−)-epicatechin as well as further C-glycosides like apigenin-8-C-β-D-glucopyranoside (vitexin) and apigenin-6-C-β-D-glucopyranoside (isovitexin), theobromine (3 mmol/L) was spiked with different concentrations of (−)-catechin-8-C-β-D-glucopyranoside, (+)-catechin, (−)-epicatechin as well as apigenin-8-C-β-D-glucopyranoside (vitexin) and apigenin-6-C-β-D-glucopyranoside (isovitexin).
# [2] = Sensory tasting in alkalized cocoa powder drink; conditions: for sensory evaluation of bitterness versus control: 50 ppm added (ppm refer to 1 kg of water), 8 persons
# Method: The modified product of example 6 was further compared to alkalized cocoa powder (5 g/200 ml)+50 ppm Epicat-6-C-Glc (ppm refer to 1 kg of water).
# The modified product of example 6 was further compared to alkalized cocoa powder (5 g/200 ml)+50 ppm Cat-6,8-C-di-Glc (ppm refer to 1 kg of water).
# The examples were repeated with the catechin and epicatechin galactosides and the same sensory results were obtained.
# [3] = Sensory tasting in astringent dark chocolate; conditions: 77 mg of 7.8% solution in propylene glycol per 20 g dark chocolate
# Method: 77 mg of a solution of catechin-8-C-glucoside dissolved in propylene glycol (7.8%) was added to 20 g of molten dark chocolate with strong astringent taste characteristics. After solidification, the chocolate was tasted against a non-treated reference chocolate.
# Food ingredients were prepared starting from green tea extract (5 g) or grape seed extract (5 g) by reaction with glucose (4 g) and 3% K2C03 in 100 ml of water. The reaction was done at 80° C. for exactly 20 min. The resulting flavour reaction mix was freeze-dried to obtain a dark red-brown mass which was then added to astringent tasting chocolate at various levels. In a first screening sensory tasting, the optimum level of addition was identified as 300 ppm.
# Ingredients prepared from grape seed extract and tea extract in such a manner when added to dark chocolate at 330 ppm decreased the perceived sensory perception of astringency in the dark chocolate.
# [4] = Sensory tasting against pure theobromine; conditions: ca. 10 ppm added to 600 ppm theobromine
# Description: Theobromine (600 ppm)+ca. 10 ppm 8-C-glucosylated catechin.
# [5] = Sensory tasting in non-alkalized cocoa powder drink; conditions: 50 ppm added
# [6] = Sensory tasting against grape seed extract; conditions: ca. 10 ppm added to 2000 ppm grape seed extract
Structure (SMILES),taste ([1]; 2.2 μmol/L added),% of panellists who detected a difference ([1]; 2.2 μmol/L added) [%],taste intensity ([1]; 2.2 μmol/L added),taste ([1]; 22.2 μmol/L added),% of panellists who detected a difference ([1]; 22.2 μmol/L added) [%],taste intensity ([1]; 22.2 μmol/L added),taste ([1]; 222/L μmol/L added),% of panellists who detected a difference ([1]; 222/L μmol/L added) [%],taste intensity ([1]; 222/L μmol/L added),sensory evaluation of bitterness versus control [2],further results
"Oc1cc(O)c2c(c1)OC(c1ccc(O)c(O)c1)C(O)C2 (single isomer, unassigned; (-)) [(−)-epicatechin]",bitterness,0,5.0,more cocoa like,50,5.0,more cocoa like,50,bitterness (4.0),–,–
"OCC1OC(c2c(O)c3c(c(C4OC(CO)C(O)C(O)C4O)c2O)OC(c2ccc(O)c(O)c2)C(O)C3)C(O)C(O)C1O (single isomer, unassigned; (-)) [Cat-6,8-C-di-Glc, (−)-cat-echin-6-C-8-C-β-D-diglucopyranoside]",–,–,–,–,–,–,–,–,–,"lower maximum bitterness intensity than control, a flatter bitterness profile and a “softer” bitterness quality",–
Oc1cc(O)c2c(c1)O[C@H](c1ccc(O)c(O)c1)[C@@H](O)C2 [(+)-catechin],bitterness,0,5.0,more cocoa like,50,5.0,more cocoa like,50,bitterness (4.0),–,–
OC[C@H]1O[C@@H](c2c(O)cc(O)c3c2O[C@@H](c2ccc(O)c(O)c2)[C@H](O)C3)[C@H](O)[C@@H](O)[C@@H]1O [(−)-catechin-8-C-β-D-glucopyranoside],"softer, more",10,(4.5),"softer, more pleasant",50,less bitter (3.5),"softer, more pleasant",100,less bitter (1.0),–,"taste perception versus reference without addition ([2]; 50 ppm added, 5 persons): less bitter and less astringent; astringency versus non-treated reference chocolate [3]: lower; bitterness versus non-treated reference chocolate [3]: remained unchanged; tasters who noticed a ""smoothing out"" effect [3]: 4 of 5; bitterness intensity compared to pure theobromine [4]: did not a perceive a decrease in bitterness intensity; timing of bitterness perception compared to pure theobromine [4]: delay in bitterness perception; taste perception versus reference without addition [5]: milder and less astringent; astringency versus reference of grape seed extract [6]: decrease in astringency"
"OC[C@H]1O[C@@H](c2c(O)cc3c(c2O)C[C@@H](O)[C@H](c2ccc(O)c(O)c2)O3)[C@H](O)[C@@H](O)[C@@H]1O [Cat-6-C-Glc, (−)-catechin-6-C-β-D-glucopyranoside]",–,–,–,–,–,–,–,–,–,"lower maximum bitterness intensity than in the control sample, a flat bitterness profile and a “softer bitterness quality",–
"OC[C@H]1O[C@@H](c2c(O)cc3c(c2O)C[C@@H](O)[C@@H](c2ccc(O)c(O)c2)O3)[C@H](O)[C@@H](O)[C@@H]1O [Epicat-6-C-Glc, (−)-epicatechin-6-C-β-D-glucopyranoside]",–,–,–,–,–,–,–,–,–,"lower maximum bitterness intensity than control, a flatter bitterness profile and a “softer” bitterness quality",–
"O=c1cc(-c2ccc(O)cc2)oc2cc(O)c([C@@H]3O[C@H](CO)[C@@H](O)[C@H](O)[C@H]3O)c(O)c12 [isovitexin, apigenin-6-C-β-D-glucopyranoside]",bitterness,0,5.0,bitterness,0,5.0,bitterness,50,4.5,–,–
"O=c1cc(-c2ccc(O)cc2)oc2c([C@@H]3O[C@H](CO)[C@@H](O)[C@H](O)[C@H]3O)c(O)cc(O)c12 [vitexin, apigenin-8-C-β-D-glucopyranoside]",–,–,–,–,0,5.0,–,50,4.5,–,% of panellists who detected a difference ([1]; 2 μmol/L added): 0%; taste intensity ([1]; 2 μmol/L added): 5.0
